In patent US8802597B2, “Herbicidal pyrimidines” (E I du Pont de Nemours and Company, priority 2003, dated 2014):

Experiments:
Experiment in all cases: Test C pre/postemergence
Assay type in all cases: in vivo
[1] = system: bermudagrass (Cynodon dactylon); settings: Postemergence; for Bermudagrass plant response rating: scale 0 to 100 (0 no effect, 100 complete control)
Outline: (§1)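 Seeds sown and sprayed preemergence with test compound in non-phytotoxic solvent containing surfactant; postemergence sprays, same formulation, went onto plants 2 to 18 cm tall (1- to 4-leaf stage). Plants held in greenhouse 12 to 14 days, then visually rated against untreated controls on a 0–100 scale (0 no effect, 100 complete control).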

[2] = system: cocklebur (Xanthium strumarium); settings: Postemergence
Outline: as §1

[3] = system: common ragweed (Ambrosia elatior); settings: Postemergence
Outline: as §1

[4] = system: goosegrass (Eleusine indica); settings: Postemergence
Outline: as §1

[5] = system: johnsongrass (Sorghum halepense); settings: Postemergence
Outline: as §1

kochia (Kochia scoparia) = settings: Postemergence
Outline: as §1

[6] = system: lambsquarters (Chenopodium album); settings: Postemergence
Outline: as §1

[7] = system: pigweed (Amaranthus retroflexus); settings: Postemergence
Outline: as §1

soybean (Glycine max) = settings: Postemergence
Outline: as §1

[8] = system: velvetleaf (Abutilon theophrasti); settings: Postemergence
Outline: as §1

[9] = 125 g ai/ha, scale 0 to 100 (0 no effect, 100 complete control)

## Nc1nc(-c2ccc(Cl)cc2)nc(C(=O)O)c1Br [Compound 88]
[1]; 31 g ai/ha
  Plant response rating (scale of 0 to 100), Bermudagrass: 50
[1]; 62 g ai/ha
  Bermudagrass plant response rating: 70
[1]; 125 g ai/ha
  Bermudagrass plant response rating: 70
[1]; 250 g ai/ha, scale 0 to 100
  Plant response rating, Bermudagrass: 80
[2]; 31 g ai/ha
  Plant response rating (scale of 0 to 100), Cocklebur: 90
[2]; 62 g ai/ha
  Plant response rating (scale of 0 to 100), Cocklebur: 90
[2]; [9]
  Cocklebur plant response rating: 90
[2]; 250 g ai/ha, scale 0 to 100
  Plant response rating, Cocklebur: 90
[3]; 31 g ai/ha
  Plant response rating (scale of 0 to 100), Ragweed: 90
[3]; 62 g ai/ha
  Plant response rating (scale of 0 to 100), Ragweed: 100
[3]; [9]
  Ragweed plant response rating: 100
[3]; 250 g ai/ha, scale 0 to 100
  Plant response rating, Ragweed: 100
[4]; 31 g ai/ha
  Plant response rating (scale of 0 to 100), Goosegrass: 50
[4]; 62 g ai/ha
  Plant response rating (scale of 0 to 100), Goosegrass: 75
[4]; [9]
  Goosegrass plant response rating: 75
[4]; 250 g ai/ha, scale 0 to 100
  Plant response rating, Goosegrass: 80
[5]; 31 g ai/ha
  Plant response rating (scale of 0 to 100), Johnsongrass: 30
[5]; 62 g ai/ha
  Plant response rating (scale of 0 to 100), Johnsongrass: 45
[5]; [9]
  Johnsongrass plant response rating: 75
[5]; 250 g ai/ha, scale 0 to 100
  Plant response rating, Johnsongrass: 85
Kochia (Kochia scoparia); 31 g ai/ha
  Plant response rating (scale of 0 to 100), Kochia: 85
Kochia (Kochia scoparia); 62 g ai/ha
  Plant response rating (scale of 0 to 100), Kochia: 95
Kochia (Kochia scoparia); [9]
  Kochia plant response rating: 95
Kochia (Kochia scoparia); 250 g ai/ha, scale 0 to 100
  Plant response rating, Kochia: 95
[6]; 31 g ai/ha
  Plant response rating (scale of 0 to 100), Lambsquarters: 90
[6]; 62 g ai/ha
  Plant response rating (scale of 0 to 100), Lambsquarters: 95
[6]; [9]
  Lambsquarters plant response rating: 95
[6]; 250 g ai/ha, scale 0 to 100
  Plant response rating, Lambsquarters: 100
[7]; 31 g ai/ha
  Plant response rating (scale of 0 to 100), Pigweed: 95
[7]; 62 g ai/ha
  Plant response rating (scale of 0 to 100), Pigweed: 100
[7]; [9]
  Pigweed plant response rating: 100
[7]; 250 g ai/ha, scale 0 to 100
  Plant response rating, Pigweed: 100
Soybean (Glycine max); 31 g ai/ha
  Plant response rating (scale of 0 to 100), Soybean: 100
Soybean (Glycine max); 62 g ai/ha
  Plant response rating (scale of 0 to 100), Soybean: 100
Soybean (Glycine max); [9]
  Soybean plant response rating: 100
Soybean (Glycine max); 250 g ai/ha, scale 0 to 100
  Plant response rating, Soybean: 100
[8]; 31 g ai/ha
  Plant response rating (scale of 0 to 100), Velvetleaf: 85
[8]; 62 g ai/ha
  Plant response rating (scale of 0 to 100), Velvetleaf: 90
[8]; [9]
  Velvetleaf plant response rating: 95
[8]; 250 g ai/ha, scale 0 to 100
  Plant response rating, Velvetleaf: 95
